System: Plasmodium falciparum
Experiment: Anti-malarial activity against Plasmodium falciparum Dd2
Format: functional, organism-based

SMILES	IC50
CC(C)(C)OC(=O)N[C@@H](Cc1ccccc1)C(=O)Nc1ccc(NC(=O)/C=C/c2ccc(-c3ccc([N+](=O)[O-])cc3)o2)cc1C(=O)c1ccccc1	420 nM
CC(C)(C)OC(=O)NC(Cc1ccc(C(F)(F)F)cc1)C(=O)Nc1ccc(NC(=O)/C=C/c2ccc(-c3ccc([N+](=O)[O-])cc3)o2)cc1C(=O)c1ccccc1 (configuration not stated)	3200 nM
CC(C)(C)OC(=O)N[C@H](Cc1ccccc1)C(=O)Nc1ccc(NC(=O)/C=C/c2ccc(-c3ccc([N+](=O)[O-])cc3)o2)cc1C(=O)c1ccccc1	900 nM
O=C(/C=C/c1ccc(-c2ccc([N+](=O)[O-])cc2)o1)Nc1ccc(NC(=O)CCc2cccc(C(F)(F)F)c2)c(C(=O)c2ccccc2)c1	630 nM
O=C(/C=C/c1ccc(-c2ccc([N+](=O)[O-])cc2)o1)Nc1ccc(NC(=O)CCc2ccccc2C(F)(F)F)c(C(=O)c2ccccc2)c1	1100 nM
N[C@@H](Cc1ccccc1)C(=O)Nc1ccc(NC(=O)/C=C/c2ccc(-c3ccc([N+](=O)[O-])cc3)o2)cc1C(=O)c1ccccc1	580 nM
NC(Cc1ccc(C(F)(F)F)cc1)C(=O)Nc1ccc(NC(=O)/C=C/c2ccc(-c3ccc([N+](=O)[O-])cc3)o2)cc1C(=O)c1ccccc1 (configuration not stated)	710 nM
N[C@H](Cc1ccccc1)C(=O)Nc1ccc(NC(=O)/C=C/c2ccc(-c3ccc([N+](=O)[O-])cc3)o2)cc1C(=O)c1ccccc1	1200 nM

The next lines start with the values.

IC50	SMILES
440 nM	Cc1ccc(CCC(=O)Nc2ccc(NC(=O)/C=C/c3ccc(-c4ccc([N+](=O)[O-])cc4)o3)cc2C(=O)c2ccccc2)cc1
1400 nM	O=C(/C=C/c1ccc(-c2ccc([N+](=O)[O-])cc2)o1)Nc1ccc(NC(=O)CCc2ccc([N+](=O)[O-])cc2)c(C(=O)c2ccccc2)c1
130 nM	O=C(/C=C/c1ccc(-c2ccc([N+](=O)[O-])cc2)o1)Nc1ccc(NC(=O)CCc2ccc(Cl)cc2)c(C(=O)c2ccccc2)c1
440 nM	O=C(/C=C/c1ccc(-c2ccc([N+](=O)[O-])cc2)o1)Nc1ccc(NC(=O)CCc2ccc(F)cc2)c(C(=O)c2ccccc2)c1
3300 nM	O=C(/C=C/c1ccc(-c2ccc([N+](=O)[O-])cc2)o1)Nc1ccc(NC(=O)CCc2ccc(O)cc2)c(C(=O)c2ccccc2)c1
310 nM	O=C(/C=C/c1ccc(-c2ccc([N+](=O)[O-])cc2)o1)Nc1ccc(NC(=O)CCc2ccccc2)c(C(=O)c2ccccc2)c1
61 nM	O=C(/C=C/c1ccc(-c2ccc([N+](=O)[O-])cc2)o1)Nc1ccc(NC(=O)CCc2ccc(C(F)(F)F)cc2)c(C(=O)c2ccccc2)c1
170 nM	O=C(/C=C/c1ccc(-c2ccc([N+](=O)[O-])cc2)o1)Nc1ccc(NC(=O)CCc2ccc(Br)cc2)c(C(=O)c2ccccc2)c1
1300 nM	COc1ccc(CCC(=O)Nc2ccc(NC(=O)/C=C/c3ccc(-c4ccc([N+](=O)[O-])cc4)o3)cc2C(=O)c2ccccc2)cc1

Reference: ChEMBL document CHEMBL1136428, “Structure-activity relationships of novel anti-malarial agents. Part 6: N-(4-arylpropionylamino-3-benzoylphenyl)-[5-(4-nitrophenyl)-2-furyl]acrylic acid amides” (Bioorg Med Chem Lett, 2003)
